Laboratory results: patent US8106039B2, “Metal complex phosphatidyl-inositol-3-kinase inhibitors” (The Trustees Of The University Of Pennsylvania, priority 2008, dated 2012)

Experiments:
[1] = system: 1205Lu melanoma cell line; test: Cell proliferation (MTT) assay; type: cell-based, human; conditions: increasing concentrations, 72 hours, FIG. 4B
Procedure: Cell Proliferation (MTT) Assay. Cells were plated into a 96-well plate at a density of 2.5×10^4 cells per ml and left to grow overnight. Cells were treated with increasing concentrations of E5E1 (0.03-30 μM), […] or LY 294002 (Calbiochem, San Diego, Calif.) (0.01-30 μM) in triplicate. In each instance cells were grown for 72 hours before being treated with 20 μl of MTT for 3 hours (Sigma). After this time, the media was rapidly removed and the MTT crystals were solubilized using DMSO. The resulting absorbance was read in a plate reader at 560 nm. Absorbance readings were subtracted from the value of blank wells, the reduction in cell growth was calculated as a percentage of control absorbance in the absence of any drug.

[2] = biological target: T1, human PI3Kγ catalytic domain (Homo sapiens, UniProt P48736); test: PI3K Kinase-Glo assay; type: biochemical; conditions: for IC50: 1.4 pmoles PI3K, FIG. 3A, read-out: IC50 PI3Kγ inhibition
T1 construct: made in house; host or cells: baculovirus expression (virus obtained from the MRC, United Kingdom)
T1 sequence (P48736 144-1102 limits assumed): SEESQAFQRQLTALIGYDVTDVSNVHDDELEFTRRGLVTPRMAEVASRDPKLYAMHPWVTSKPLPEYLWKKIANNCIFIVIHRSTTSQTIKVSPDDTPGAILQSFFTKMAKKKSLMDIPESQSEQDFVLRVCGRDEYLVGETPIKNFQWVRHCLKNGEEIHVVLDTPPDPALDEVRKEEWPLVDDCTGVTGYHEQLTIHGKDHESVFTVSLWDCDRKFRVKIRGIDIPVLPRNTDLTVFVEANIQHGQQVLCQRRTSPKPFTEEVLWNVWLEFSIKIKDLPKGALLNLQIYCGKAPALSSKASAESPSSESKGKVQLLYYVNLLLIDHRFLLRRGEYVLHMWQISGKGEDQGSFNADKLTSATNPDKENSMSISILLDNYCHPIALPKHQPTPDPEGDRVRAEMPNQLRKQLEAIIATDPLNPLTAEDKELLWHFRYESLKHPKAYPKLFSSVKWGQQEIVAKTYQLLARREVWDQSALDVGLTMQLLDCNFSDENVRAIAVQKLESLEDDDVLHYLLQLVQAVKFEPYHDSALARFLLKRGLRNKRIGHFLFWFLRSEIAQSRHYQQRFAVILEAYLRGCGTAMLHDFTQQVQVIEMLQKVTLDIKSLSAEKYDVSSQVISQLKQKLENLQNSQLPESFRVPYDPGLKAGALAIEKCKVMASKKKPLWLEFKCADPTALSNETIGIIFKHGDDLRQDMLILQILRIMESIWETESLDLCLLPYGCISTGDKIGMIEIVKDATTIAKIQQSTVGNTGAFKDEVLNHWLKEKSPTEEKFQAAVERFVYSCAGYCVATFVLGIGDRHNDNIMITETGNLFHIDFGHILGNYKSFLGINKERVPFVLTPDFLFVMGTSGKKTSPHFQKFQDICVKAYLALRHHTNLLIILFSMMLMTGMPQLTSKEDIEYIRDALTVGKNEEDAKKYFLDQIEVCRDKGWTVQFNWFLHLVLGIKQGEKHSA
Procedure: PI3K Kinase-Glo Assay. Recombinantly expressed human PI3Kγ catalytic domain was preincubated with various concentration of inhibitors with a final DMSO concentration of 2% in reaction buffer (20 mM Tris pH 7.5, 100 mM NaCl, 10 mM MgCl2) for 1 hour at room temperature before this mixture was added to a solution of 0.1 mg/mL D-myo-Phosphatidylinositol 4,5-biphosphate (PtdIns (4,5)P2, Echelon Biosciences) and 10 μM ATP. 14 pmoles PI3K was used in compounds DW12, DW12Me, EAd125 comparison and 1.4 pmoles PI3K was used for compounds E5, E5E2, E5E1 measurements. The kinase reaction was carried out in a 50 μL final volume in a 96-well microtiter plate at 37° C. for 3 hours before 50 μL Kinase-Glo® (Promega) developing solution was added into the mixture to generate a luminescence signal. The signal was recorded using the PerkinElmer Wallac 1420 luminometer using a luminescence filter. Data were processed and IC50 values were derived from using 2% DMSO and with no kinase as controls and a sigmoidal dose response curve fitting by GraphPad Prism.

[3] = system: phospho-AKT in a melanoma cell line; test: Western blot analysis of phospho-AKT in melanoma cells; type: cell-based, human; conditions: FIG. 4A
Text: Western Blot Analysis. Proteins were extracted and blotted for as described in (41). […] Antibodies to phospho-AKT and total AKT were from Cell Signaling Technology, (Beverly, Mass.). The monoclonal antibody to β-actin was from Sigma.

[4] = system: melanoma cells grown as 3D collagen-implanted spheroids; test: 3D spheroid growth / invasion; type: cell-based, human; conditions: 30 μM; 72 hours; FIG. 4C
Procedure: 3D Spheroid Growth. Melanoma spheroids were prepared using the liquid overlay method. Briefly, […] of melanoma cells (25,000 cells per ml) were added to a 96-well plate coated with 1.5% agar (Difco, Sparks MD). Plates were left to incubate for 72 hours, by which time cells had organized into 3D spheroids. Spheroids were then harvested using a P1000 pipette. The media was removed and the spheroids were implanted into a gel of bovine collagen I containing EMEM, L-glutamine and 2% FBS. Normal 2% melanoma media was overlaid on top of the solidified collagen. Spheroids were treated with either E5E1 (10-30 μM), or E5E2 (10-30 μM), before being left to grow for 72 hours. Spheroids were then washed twice in PBS before being treated with calcein-AM, ethidium bromide (Molecular Probes, Eugene, Oreg.) for 1 hour at 37° C., according to the manufacturer's instruction. After this time, pictures of the invading spheroids were taken using a Nikon-300 inverted fluorescence microscope.

[5] = biological target: PAK1 (Homo sapiens, UniProt Q13153); test: PAK1 kinase assay; type: biochemical; conditions: inhibitor concentration of 4 μM; FIG. 3B
Sequence of PAK1 (Q13153 whole entry): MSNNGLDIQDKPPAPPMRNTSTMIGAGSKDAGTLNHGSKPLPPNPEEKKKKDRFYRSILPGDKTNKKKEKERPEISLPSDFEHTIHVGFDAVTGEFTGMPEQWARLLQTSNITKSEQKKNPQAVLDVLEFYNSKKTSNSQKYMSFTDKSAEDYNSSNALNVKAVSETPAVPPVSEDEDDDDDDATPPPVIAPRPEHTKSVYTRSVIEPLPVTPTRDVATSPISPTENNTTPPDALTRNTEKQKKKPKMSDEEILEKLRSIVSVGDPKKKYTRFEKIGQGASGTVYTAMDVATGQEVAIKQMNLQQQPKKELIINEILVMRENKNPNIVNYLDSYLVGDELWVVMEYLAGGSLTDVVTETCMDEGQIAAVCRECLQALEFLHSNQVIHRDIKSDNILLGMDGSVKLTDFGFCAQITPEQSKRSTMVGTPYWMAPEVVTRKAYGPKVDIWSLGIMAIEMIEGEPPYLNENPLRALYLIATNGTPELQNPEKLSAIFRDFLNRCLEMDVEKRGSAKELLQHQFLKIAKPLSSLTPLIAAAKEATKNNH
Procedure: PAK1 kinase assay—Kinase assays were performed using labeled γ-P^32 ATP and the incorporation of labeled phosphate onto the myelin basic protein (MBP) substrate was monitored. Different concentrations of compound inhibitor were incubated with 0.1 nM PAK1 kinase in 20 mM MOPS pH 7, 30 mM MgCl2, 1 mM EDTA, 0.8 μg/μL bovine serum albumin, 5% DMSO (resulting from the inhibitor stock solution), in the presence of 25 μg of MBP substrate for 20 minutes. Reactions were initiated by adding ATP to a final concentration of 1 μM including 0.2 μCi/μL γ-^32P ATP to a final volume of 25 μL. The reactions were terminated by spotting 17.5 μL onto a circular P81 phosphocellulose paper (diameter 2.1 cm), followed by washing three times with 0.75% phosphoric acid and one time with acetone. The dried P81 papers were transferred to scintillation vials and 4 ml of scintillation cocktail was added. The counts per minute (CPM) were measured with a scintillation counter and the enzyme activity in the presence of the inhibitor was calculated as a percentage of the control sample corrected by the background.

[6] = biological target: T2, MST1 (Homo sapiens, UniProt Q13043); test: MST1 kinase assay; type: biochemical; conditions: inhibitor concentration of 4 μM; FIG. 3B
T2 sequence (Q13043 1-487): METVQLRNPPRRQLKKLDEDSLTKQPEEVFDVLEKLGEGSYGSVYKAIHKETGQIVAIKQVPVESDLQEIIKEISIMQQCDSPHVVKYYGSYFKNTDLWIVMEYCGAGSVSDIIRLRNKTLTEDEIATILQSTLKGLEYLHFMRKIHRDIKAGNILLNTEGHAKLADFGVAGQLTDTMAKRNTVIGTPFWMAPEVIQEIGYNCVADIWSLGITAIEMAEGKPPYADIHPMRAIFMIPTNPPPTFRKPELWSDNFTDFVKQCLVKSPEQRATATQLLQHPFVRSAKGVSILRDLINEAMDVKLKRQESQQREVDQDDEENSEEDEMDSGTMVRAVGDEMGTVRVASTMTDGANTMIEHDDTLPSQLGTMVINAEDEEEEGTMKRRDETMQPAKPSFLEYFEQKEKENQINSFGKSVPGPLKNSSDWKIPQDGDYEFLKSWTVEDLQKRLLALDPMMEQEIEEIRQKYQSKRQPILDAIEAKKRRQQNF
Procedure: MST1 kinase assay—Kinase assays were performed using labeled γ-P^32 ATP and the incorporation of labeled phosphate onto the substrate FOXO was monitored. Kinase assays were performed using kinase buffer containing 10 mM Tris pH 7.5, 10 mM MgCl2, 1 mM dithiothreitol (DTT), 1 mM phenylmethylsulfonyl fluoride (PMSF) and a cocktail containing phosphatase inhibitor. 5 μCi of labeled γ-P^32 ATP and a final concentration of 200 μM of ATP were used for each reaction. 10 nM of the enzyme was pre-incubated for 30 min with various concentrations of inhibitor and an equivalent amount of DMSO was used as a control. After 30 min of incubation of the enzyme with the inhibitor, 1 μg of substrate was added. The reaction was initiated by addition of ATP. All reactions were incubated at 37° C. for 30 min. and then stopped with SDS gel-loading dye; subsequently samples were heated for 3 min and loaded onto a 16% Tris-glycine gel (Novagen). The bands were visualized using high sensitivity Kodak film and the results were quantified using the software ImageJ.

[7] = biological target: BRAF^V600E (Homo sapiens, UniProt P15056, V600E); test: BRAF kinase assay (V600E); type: biochemical; conditions: inhibitor concentration of 4 μM; FIG. 3B
Sequence of BRAF^V600E (P15056 whole entry V600E): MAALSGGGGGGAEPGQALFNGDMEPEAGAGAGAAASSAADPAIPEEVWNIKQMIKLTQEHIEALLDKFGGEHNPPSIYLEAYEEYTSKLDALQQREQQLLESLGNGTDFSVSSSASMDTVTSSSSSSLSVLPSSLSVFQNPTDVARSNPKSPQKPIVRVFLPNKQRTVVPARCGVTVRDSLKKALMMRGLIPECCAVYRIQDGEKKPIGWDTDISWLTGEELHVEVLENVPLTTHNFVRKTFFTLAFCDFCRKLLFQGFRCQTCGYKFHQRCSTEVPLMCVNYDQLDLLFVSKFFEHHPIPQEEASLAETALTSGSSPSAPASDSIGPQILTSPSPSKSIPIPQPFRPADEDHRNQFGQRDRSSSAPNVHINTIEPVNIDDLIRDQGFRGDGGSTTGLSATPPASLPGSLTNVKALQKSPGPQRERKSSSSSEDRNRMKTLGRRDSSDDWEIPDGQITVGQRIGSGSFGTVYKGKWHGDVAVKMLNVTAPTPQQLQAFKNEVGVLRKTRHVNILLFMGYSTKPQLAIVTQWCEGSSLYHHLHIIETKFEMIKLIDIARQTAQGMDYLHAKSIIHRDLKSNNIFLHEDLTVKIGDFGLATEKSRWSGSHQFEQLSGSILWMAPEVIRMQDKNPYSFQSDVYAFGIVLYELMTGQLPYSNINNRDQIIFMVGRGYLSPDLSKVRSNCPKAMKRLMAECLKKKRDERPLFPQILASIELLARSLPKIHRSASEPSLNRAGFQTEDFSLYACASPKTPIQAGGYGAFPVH
Procedure: (§1) BRAF kinase assay—Recombinantly expressed GST-MEK diluted in TTBS buffer (20 mM Tris pH 7.5, 150 mM NaCl, 0.05% TWEEN-20) to 50 μg/mL in a volume of 100 μL was bound to the wells of a 96-well glutathione coated plate (Pierce Biotechnology). 1 μL of compound with 2× serial dilutions in a 100% DMSO stock solution were added to a mixture of 50 μL of a buffer containing 50 mM HEPES pH 7.0 with 0.7 pmoles of BRAF kinase. This mixture was incubated at room temperature for 1 hour before it was added into the GST-MEK bound wells of the 96-well plate. An additional 50 μL of phosphorylation buffer (50 mM HEPES pH 7.0, 200 mM NaCl, 10 mM MgCl2, 200 μM ATP) was added into the well mixture to start the kinase reaction at 37° C. for 30 min with intermittent shaking. The kinase reaction was stopped by extensive washing with TTBS buffer and a 1:5000 dilution of Anti-phospho-MEK1 (Ser218/222)/MEK2 (Ser222/226) monoclonal antibody (Millipore) in TTBS was subsequently added into the wells and incubated for 1 hour with shaking. Goat Anti-Rabbit IgG (H+L)-HRP Conjugate (BioRad Laboratories) in a 1:5000 dilution was added into the wells to incubate at room temperature with shaking. Finally, the SuperSignal ELISA Pico chemiluminescent substrate (Pierce Biotechnology) was added into the wells. The luminescence signal was recorded with a luminescence filter using a Wallac 1420 luminometer (PerkinElmer).

[8] = biological target: BRAF mutants (Leu513 mutated to valine and alanine); test: BRAF kinase assay with site directed mutants; type: biochemical, human; conditions: FIG. 6B
Procedure: as §1, with “(PerkinElmer). […]” for “(PerkinElmer).”

[9] = biological target: BRAF^WT (Homo sapiens, UniProt P15056); test: BRAF kinase assay (wild type); type: biochemical
Sequence of BRAF^WT (P15056 whole entry): as the sequence (P15056 whole entry V600E) above, with E600V counted along it
Procedure: as §1

Row | IC50 [2] [nM] | inhibition of PAK1 [5] | PI3K inhibition / inhibitory potency (in words) ([2]; comparison among the inhibitors, FIG. 2C, FIG. 9) | inhibition of MST1 [6] | inhibition of BRAF^V600E [7] | IC50 [8] [nM] | inhibition of BRAF^WT ([9]; inhibitor concentration of 4 μM, FIG. 3B) | inhibition against wild-type BRAF ([9]; inhibitor concentration of 10 μM, FIG. 6B) | SMILES | cell proliferation (MTT) [1] | block of constitutive activity of AKT (phospho-AKT) [3] | invasion of melanoma cells from 3D spheroids [4]
1 | – | – | – | – | – | – | – | – | O=c1cc(N2CCOCC2)oc2c(-c3ccccc3)cccc12 [LY294002, 2-(4-morpholinyl)-8-phenyl-4H-1-benzopyran-4-one, reference compound] | inhibition of cell proliferation | – | –
2 | 41 | – | – | – | – | – | – | – | CN1C(=O)c2c(c3c4cc(O)ccc4[n]4c3c3c2cc(F)c[n+]3[Ru-2]42356([C]#[O+])[CH]4[CH]2[CH]3[C]5(C(=O)NC(C)(CO)CO)[CH]46)C1=O (single isomer, unassigned) [Compound E5E1] | inhibition of cell proliferation | block the constitutive activity of AKT in a concentration dependent manner | completely blocked
3 | 39 | did not show appreciable inhibition | potent | did not show appreciable inhibition | did not show appreciable inhibition | ~10000 | did not show appreciable inhibition | no detectable inhibition | CN1C(=O)c2c(c3c4cc(O)ccc4[n]4c3c3c2cc(F)c[n+]3[Ru-2]42356([C]#[O+])[CH]4[CH]2[CH]3[C]5(C(=O)NC(C)(CO)CO)[CH]46)C1=O (single isomer, unassigned) [Compound E5E2] | – | – | –
